Experimental data as given in paper PMC7955893 (Journal of medicinal chemistry, 2019).
Blank lines part the entries; values can stand above or below the compound they belong to.

Experiments:
[1] = system: Caco-2; assay: A-B permeability testing; conditions: Caco-2, pH 6.5/7.4
[2] = system: MNAM levels in U2OS cells; assay: MNAM measurement in U2OS cells by LC-MS/MS; type: cell-based, human; conditions: 24 h incubation
[3] = system: U2OS cells; assay: CellTiter-Glo luminescent cell viability; type: cell-based, human; conditions: 48 h, 100 μM dose
[4] = target: T1, NNMT (Homo sapiens, UniProt P40261); assay: Cellular thermal shift assay; type: binding; conditions: K562 cell lysate; various concentrations; heated at 57 °C
T1 sequence (P40261 1-264): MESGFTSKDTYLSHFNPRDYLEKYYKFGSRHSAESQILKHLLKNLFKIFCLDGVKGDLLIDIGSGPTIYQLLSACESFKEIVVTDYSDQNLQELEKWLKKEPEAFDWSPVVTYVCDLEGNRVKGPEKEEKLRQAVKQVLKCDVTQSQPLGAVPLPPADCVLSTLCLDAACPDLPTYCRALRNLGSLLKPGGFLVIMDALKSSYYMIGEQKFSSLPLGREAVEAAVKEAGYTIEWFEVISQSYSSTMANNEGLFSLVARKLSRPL

[5] = target: T1, NNMT; assay: Fluorescence-based continuous NNMT inhibition assay; type: biochemical; conditions: for NNMT inhibition (in words): qualitative SAR statement

Structure (SMILES): Nc1ncnc2c1ncn2[C@@H]1O[C@H](CCCC[C@H](N)C(=O)O)[C@@H](O)[C@H]1O [compound 11, (S)-2-amino-6-((2R,3S,4R,5R)-5-(6-amino-9H-purin-9-yl)-3,4-dihydroxytetrahydrofuran-2-yl)hexanoic acid]
NNMT inhibition (in words) [5]: poor NNMT inhibitor

Structure (SMILES): C#C[C@@H](CC[C@H](N)C(=O)O)C[C@H]1O[C@@H](n2cnc3c(N)ncnc32)[C@H](O)[C@@H]1O [compound 12, (2S,5S)-2-amino-5-(((2R,3S,4R,5R)-5-(6-amino-9H-purin-9-yl)-3,4-dihydroxytetrahydrofuran-2-yl)methyl)hept-6-ynoic acid]
NNMT inhibition (in words) [5]: equally poor NNMT inhibitors

Structure (SMILES): Nc1ncnc2c1ncn2[C@@H]1O[C@H](C[C@@H](C#Cc2ccccc2)CC[C@H](N)C(=O)O)[C@@H](O)[C@H]1O [compound 13, (2S,5S)-2-amino-5-(((2R,3S,4R,5R)-5-(6-amino-9H-purin-9-yl)-3,4-dihydroxytetrahydrofuran-2-yl)methyl)-7-phenylhept-6-ynoic acid]
NNMT inhibition (in words) [5]: equally poor NNMT inhibitors

Structure (SMILES): NC(=O)c1cccc(CC[C@@H](CC[C@H](N)C(=O)O)C[C@H]2O[C@@H](n3cnc4c(N)ncnc43)[C@H](O)[C@@H]2O)c1 [compound 15, (2S,5S)-2-amino-5-(((2R,3S,4R,5R)-5-(6-amino-9H-purin-9-yl)-3,4-dihydroxytetrahydrofuran-2-yl)methyl)-7-(3-carbamoylphenyl)heptanoic acid]
fold more potent than MS2756 in terms of Ki ([5]; relative to MS2756): approximately 200 fold | fold weaker inhibitor than NS1 in terms of Ki ([5]; relative to NS1): ~10 fold

Structure (SMILES): NC(=O)c1cccc(CC[C@H](CC[C@H](N)C(=O)O)C[C@H]2O[C@@H](n3cnc4c(N)ncnc43)[C@H](O)[C@@H]2O)c1 [compound 16, (2S,5R)-2-amino-5-(((2R,3S,4R,5R)-5-(6-amino-9H-purin-9-yl)-3,4-dihydroxytetrahydrofuran-2-yl)methyl)-7-(3-carbamoylphenyl)heptanoic acid]
fold difference in Ki between NS1-alkane and its C6’ epimer ([5]; relative to NS1-alkane (15)): ~ 20 fold

Structure (SMILES): NC(=O)c1cccc(C#C[C@@H]2C[C@H]2[C@H]2O[C@@H](n3cnc4c(N)ncnc43)[C@H](O)[C@@H]2O)c1 [compound 18, 3-(((1R,2R)-2-((2R,3S,4R,5R)-5-(6-amino-9H-purin-9-yl)-3,4-dihydroxytetrahydrofuran-2-yl)cyclopropyl)ethynyl)benzamide]
NNMT inhibition (in words) [5]: proved detrimental

Structure (SMILES): CO[C@@H]1O[C@H](C[C@@H](C#Cc2cccc(C(N)=O)c2)CC[C@H](N)C(=O)O)[C@@H](O)[C@H]1O [compound 19, (2S,5S)-2-amino-7-(3-carbamoylphenyl)-5-(((2R,3S,4R,5R)-3,4-dihydroxy-5-methoxytetrahydrofuran-2-yl)methyl)hept-6-ynoic acid]
NNMT inhibition (in words) [5]: completely abrogated NNMT inhibition

Structure (SMILES): NCCC[C@H](C#Cc1cccc(C(N)=O)c1)C[C@H]1O[C@@H](n2cnc3c(N)ncnc32)[C@H](O)[C@@H]1O [compound 21, 3-((S)-6-amino-3-(((2R,3S,4R,5R)-5-(6-amino-9H-purin-9-yl)-3,4-dihydroxytetrahydrofuran-2-yl)methyl)hex-1-yn-1-yl)benzamide]
ability to decrease MNAM levels in U2OS cells (in words) [2]: the effects were modest | cytotoxicity to U2OS cells (in words) [3]: None of the compounds tested (NS1, 21, 23, 24, 25) were toxic

Structure (SMILES): COC(=O)[C@@H](N)CC[C@H](C#Cc1cccc(C(N)=O)c1)C[C@H]1O[C@@H](n2cnc3c(N)ncnc32)[C@H](O)[C@@H]1O [compound 23, Methyl (2S,5S)-2-amino-5-(((2R,3S,4R,5R)-5-(6-amino-9H-purin-9-yl)-3,4-dihydroxytetrahydrofuran-2-yl)methyl)-7-(3-carbamoylphenyl)hept-6-ynoate]
ability to decrease MNAM levels in U2OS cells (in words) [2]: the effects were modest | cytotoxicity to U2OS cells (in words) [3]: None of the compounds tested (NS1, 21, 23, 24, 25) were toxic

Structure (SMILES): NC(=O)c1cccc(C#C[C@@H](CC[C@H](N)C(N)=O)C[C@H]2O[C@@H](n3cnc4c(N)ncnc43)[C@H](O)[C@@H]2O)c1 [compound 24, 3-((3S,6S)-6,7-diamino-3-(((2R,3S,4R,5R)-5-(6-amino-9H-purin-9-yl)-3,4-dihydroxytetrahydrofuran-2-yl)methyl)-7-oxohept-1-yn-1-yl)benzamide]
ability to decrease MNAM levels in U2OS cells (in words) [2]: the effects were modest | cytotoxicity to U2OS cells (in words) [3]: None of the compounds tested (NS1, 21, 23, 24, 25) were toxic

Structure (SMILES): NC(=O)c1ccccc1C#C[C@@H](CC[C@H](N)C(=O)O)C[C@H]1O[C@@H](n2cnc3c(N)ncnc32)[C@H](O)[C@@H]1O [compound 28, (2S,5S)-2-amino-5-(((2R,3S,4R,5R)-5-(6-amino-9H-purin-9-yl)-3,4-dihydroxytetrahydrofuran-2-yl)methyl)-7-(2-carbamoylphenyl)hept-6-ynoic acid]
NNMT inhibition (in words) [5]: much less potent than NS1

Structure (SMILES): Nc1ncnc2c1ncn2[C@@H]1O[C@H](C[C@@H](C#Cc2ccc3c(c2)C(=O)NCC3)CC[C@H](N)C(=O)O)[C@@H](O)[C@H]1O [compound 34, (2S,5S)-2-amino-5-(((2R,3S,4R,5R)-5-(6-amino-9H-purin-9-yl)-3,4-dihydroxytetrahydrofuran-2-yl)methyl)-7-(1-oxo-1,2,3,4-tetrahydroisoquinolin-7-yl)hept-6-ynoic acid]
NNMT inhibition (in words) [5]: moderate NNMT inhibitors

Structure (SMILES): Nc1ncnc2c1ncn2[C@@H]1O[C@H](C[C@@H](C#Cc2ccc3c(c2)C(=O)NC3)CC[C@H](N)C(=O)O)[C@@H](O)[C@H]1O [compound 35, (2S,5S)-2-amino-5-(((2R,3S,4R,5R)-5-(6-amino-9H-purin-9-yl)-3,4-dihydroxytetrahydrofuran-2-yl)methyl)-7-(3-oxoisoindolin-5-yl)hept-6-ynoic acid]
NNMT inhibition (in words) [5]: moderate NNMT inhibitors

Second part, led by results:

A-B permeability (in words) [1]: limited permeability | isothermal dose response CETSA, stabilization of NNMT (in words) [4]: dose-dependent manner
Structure (SMILES): NC(=O)c1cccc(C#C[C@@H](CC[C@H](N)C(=O)O)C[C@H]2O[C@@H](n3cnc4c(N)ncnc43)[C@H](O)[C@@H]2O)c1 [NS1, (2S,5S)-2-amino-5-(((2R,3S,4R,5R)-5-(6-amino-9H-purin-9-yl)-3,4-dihydroxytetrahydrofuran-2-yl)methyl)-7-(3-carbamoylphenyl)hept-6-ynoic acid]
ability to decrease MNAM levels in U2OS cells (in words) [2]: the effects were modest | cytotoxicity to U2OS cells (in words) [3]: None of the compounds tested (NS1, 21, 23, 24, 25) were toxic

fold weaker inhibitor than NS1 in terms of Ki ([5]; relative to NS1): ~ 500 fold
Structure (SMILES): NC(=O)c1cccc(C#CCC[C@H]2O[C@@H](n3cnc4c(N)ncnc43)[C@H](O)[C@@H]2O)c1 [compound 17, 3-(4-((2R,3S,4R,5R)-5-(6-amino-9H-purin-9-yl)-3,4-dihydroxytetrahydrofuran-2-yl)but-1-yn-1-yl)benzamide]

NNMT inhibition (in words) [5]: poor NNMT inhibitor
Structure (SMILES): NC(=O)c1cccc(C#C[C@@H](CCCC(=O)O)C[C@H]2O[C@@H](n3cnc4c(N)ncnc43)[C@H](O)[C@@H]2O)c1 [compound 20, (S)-5-(((2R,3S,4R,5R)-5-(6-amino-9H-purin-9-yl)-3,4-dihydroxytetrahydrofuran-2-yl)methyl)-7-(3-carbamoylphenyl)hept-6-ynoic acid]

isothermal dose response CETSA, stabilization of NNMT (in words) [4]: dose-dependent manner
Structure (SMILES): NC(=O)NCC[C@H](C#Cc1cccc(C(N)=O)c1)C[C@H]1O[C@@H](n2cnc3c(N)ncnc32)[C@H](O)[C@@H]1O [compound 25, 3-((S)-3-(((2R,3S,4R,5R)-5-(6-amino-9H-purin-9-yl)-3,4-dihydroxytetrahydrofuran-2-yl)methyl)-5-ureidopent-1-yn-1-yl)benzamide]
ability to decrease MNAM levels in U2OS cells (in words) [2]: the effects were modest | cytotoxicity to U2OS cells (in words) [3]: None of the compounds tested (NS1, 21, 23, 24, 25) were toxic

fold increase in inhibitory activity in terms of Ki compared to NS1 ([5]; relative to NS1): ~ 2 fold
Structure (SMILES): NC(=O)c1cccc(C#C[C@@H](CCC[C@H](N)C(=O)O)C[C@H]2O[C@@H](n3cnc4c(N)ncnc43)[C@H](O)[C@@H]2O)c1 [compound 26, (2S,6S)-2-amino-6-(((2R,3S,4R,5R)-5-(6-amino-9H-purin-9-yl)-3,4-dihydroxytetrahydrofuran-2-yl)methyl)-8-(3-carbamoylphenyl)oct-7-ynoic acid]

NNMT inhibition (in words) [5]: much less potent than NS1
Structure (SMILES): NC(=O)c1ccc(C#C[C@@H](CC[C@H](N)C(=O)O)C[C@H]2O[C@@H](n3cnc4c(N)ncnc43)[C@H](O)[C@@H]2O)cc1 [compound 27, (2S,5S)-2-amino-5-(((2R,3S,4R,5R)-5-(6-amino-9H-purin-9-yl)-3,4-dihydroxytetrahydrofuran-2-yl)methyl)-7-(4-carbamoylphenyl)hept-6-ynoic acid]

NNMT inhibition (in words) [5]: much less potent than NS1
Structure (SMILES): Nc1ncnc2c1ncn2[C@@H]1O[C@H](C[C@@H](C#Cc2cccc(S(N)(=O)=O)c2)CC[C@H](N)C(=O)O)[C@@H](O)[C@H]1O [compound 29, (2S,5S)-2-amino-5-(((2R,3S,4R,5R)-5-(6-amino-9H-purin-9-yl)-3,4-dihydroxytetrahydrofuran-2-yl)methyl)-7-(3-sulfamoylphenyl)hept-6-ynoic acid]
